Data: paper PMC4766439, “Discovery of novel PDE9 inhibitors capable of inhibiting Aβ aggregation as potential candidates for the treatment of Alzheimer’s disease” (Scientific Reports, 2016)

Key:
[1] = Lipid-water distribution coefficient, shake-flask 1-octanol/water; format: physicochemical; details: 1-octanol/water (1:1), means of at least three independent tests
[2] = Oxygen Radical Absorbance Capacity (ORAC-FL) assay; details: Trolox as standard
Experimental: The assays were performed in 75 mM PBS (pH 7.4) and all the tested compounds were dissolved in DMSO and diluted with the PBS. Trolox was used as a standard (1–10 μM final concentration). The tested compounds at different concentrations (20 μL, final concentration: 2 μM) and fluorescein (FL, 120 μL, final concentration: 300 nM) were placed in the wells of a black 96-well plate. The mixture was incubated for 10 min at 37 °C and then, APPH solution (60 μL, final concentration: 12 mM diluted by 75 mM PBS) was added rapidly. […] A blank (FL + AAPH), with PBS replacing the compounds and Trolox was used for calibration in each assay. The compounds were tested at different concentrations (0.5–10 μM). The experiments were performed in three independent runs for each sample. The fluorescence measurements were normalized to that of the blank (without antioxidant). The area under the fluorescence decay curve (AUC) was calculated using the following equation (eq. 2):
where f0 is the fluorescence reading at 0 min and fi is the fluorescence reading at time i. The net AUC was calculated by the expression AUCsample − AUCblank. Regression equations between net AUC and Trolox concentrations were calculated. The final results were expressed in μM of Trolox equivalent/μM of pure compounds.

PDE5A1 (535–860) = PDE5A1 (535–860) (Homo sapiens, UniProt O76074); assay: PDE activity assay, PDE5A1 catalytic domain; format: biochemical
Experimental: (§1) The enzymatic activities of the catalytic domains of PDE9 and other PDEs were measured by using cGMP or cAMP as substrates. The assay buffer contained 20–50 mM Tris–HCl (pH 7.5–8.0), 10 mM MgCl2 or 4 mM MnCl2, 1 mM DTT, and 10–20 nM ^3H-cGMP or ^3H-cAMP (20000–30000 cpm/assay, GE Healthcare). The reaction was performed at room temperature for 15 min and then terminated by the addition of 0.2 M ZnSO4. The addition of 0.25 M BaSO4 precipitated the generated ^3H-GMP, whereas the unreacted ^3H-cGMP remained in solution. The radioactivity in the supernatant was measured in 2.5 mL with an Ultim Gold liquid scintillation counter. […] The IC50 values were calculated by nonlinear regression method by using GraphPad Prism 5.0 Software.

[3] = PAMPA-BBB in vitro blood-brain barrier permeation assay; format: in vitro ADME
Experimental: The blood–brain barrier penetration capacity of the compounds was evaluated by using the parallel artificial membrane permeation assay (PAMPA). […] The porcine brain lipid (PBL) was obtained from Avanti Polar Lipids. The donor microplate (PVDF membrane, pore size of 0.45 nm) and the acceptor microplate were from Millipore. The acceptor 96-well microplate (COSTAR) was filled with 300 μL of a PBS/EtOH mixture (7:3) and the filter membrane was impregnated with 4 μL of PBL in dodecane (20 mg/mL). The compounds were dissolved in DMSO at a concentration of 5 mg/mL and diluted with the PBS/EtOH mixture (7:3) to a concentration of 100 μg /mL. Then, 200 μL of this solution was added to the donor wells and the wells were carefully placed on the acceptor plate, which was then incubated for 10 h at 25 °C in a vibrationless environment. After the incubation, the donor plate was removed and the concentration of compounds in the acceptor wells was determined with a UV plate reader (Flexstation 3). Each sample was analyzed at five wavelengths in four wells, and at least three independent runs were performed. The results are expressed as the mean ± standard deviation. In these experiments, 13 quality control standards of known BBB permeability were included to validate the analysis set.
where Vd is the volume in the donor well, Va is the volume in acceptor well, A is the filter area, t is the permeation time, [drug]acceptor is the absorbance of the compound in the acceptor well, and [drug]equilibrium is the theoretical equilibrium absorbance.

PDE2A3 (580–941) = target: T1, PDE2A3 (580–941) (Homo sapiens, UniProt O00408); assay: PDE activity assay, PDE2A3 catalytic domain; format: biochemical
T1 construct: PDE2A3 (580–941)
Experimental: as §1

[4] = Cu-ascorbate redox system (CCA fluorescence); details: [Cu^2+] = 5 μM, [16] = 15 μM, ascorbate 150 μM, CCA 50 μM, PBS pH 7.4
Experimental: The experiments were performed as reported previously. […]. Then, ascorbate (150 μM) was added to the solution, and the fluorescence was recorded every 20 s (λexcitation = 395 nm, λemission = 450 nm). Each experiment was performed in triplicate. All test solutions contained 1 μM desferryl and 0.1% methanol.

PDE10A2 (448–789) = target: T2, PDE10A2 (448–789) (Homo sapiens, UniProt Q9Y233); assay: PDE activity assay, PDE10A2 catalytic domain; format: biochemical
T2 construct: PDE10A2 (448–789)
Experimental: as §1

PDE4D2 (86–413) = target: T3, PDE4D2 (86–413) (Homo sapiens, UniProt Q08499); assay: PDE activity assay, PDE4D2 catalytic domain; format: biochemical
T3 construct: PDE4D2 (86–413)
Experimental: as §1

PDE1B2 (10–487) = target: T4, PDE1B2 (10–487) (Homo sapiens, UniProt Q01064); assay: PDE activity assay, PDE1B2 catalytic domain; format: biochemical
T4 construct: PDE1B2 (10–487)
Experimental: as §1

SH-SY5Y cells [5] = assay: Intracellular antioxidant activity (DCFH-DA, t-BuOOH); format: cell-based, human; details: t-BuOOH-induced; 5 μM of 16 vs 10 μM of Trolox
Experimental: Cell culture was performed as reported previously. The human neuron-like cell line SH-SY5Y was obtained from the Institute of Biochemistry and Cell Biology, Shanghai Institute for Biological Sciences (Shanghai, China). The cells were cultured at 37 °C in a humidified atmosphere of 5% CO2 in Dulbecco’s modified Eagle’s medium (DMEM, GIBCO) supplemented with 10% fetal calf serum (FCS, GIBCO), 1 mM glutamine, 100 IU/mL penicillin, and 100 μg/mL streptomycin.
The antioxidant activity was determined as reported previously. The SH-SY5Y cells were seeded at a density of 1 × 10^4 cells/well in a 96-well plate. After 24 h, the culture medium was replaced with medium containing tested compounds, and the cells were cultured for an additional 24 h. Then, the cells were washed with PBS and incubated with 5 μM DCFH-DA (diluted by PBS) at 37 °C for 30 min. […] Then, the fluorescence of the cells in each well was measured (λexcitation = 485 nm, λemission = 535 nm) with a multifunctional microplate reader (Flex Station 3). The antioxidant activity was expressed as a percentage relative to that of the control cells and calculated using the formula (Ft – Fnt)/(Ft’ – Fnt) ×100, where Ft is the fluorescence value of the cells treated with the tested compound, Ft’ is the fluorescence value of the cells not treated with the tested compound, and Fnt is the fluorescence value of the cells treated with t-BuOOH.

SH-SY5Y cells [6] = assay: MTT cytotoxicity assay; format: cell-based, human; details: below the 10 μM concentration, 48 h
[7] = Metal-chelating capacity by UV-vis spectrophotometry; format: physicochemical; details: 30% (v/v) ethanol/buffer, pH 7.4
Experimental: The experiments were performed according to previously reported methods. The metal chelation was monitored spectrophotometrically using a UV–vis spectrophotometer. […].

Aβ1-42 fibrils = target: T5, Aβ1-42 fibrils (Homo sapiens, UniProt P05067); assay: ThT assay, disaggregation of Cu^2+-induced Aβ1-42 fibrils; format: biochemical; details: [Aβ1-42] = 25 μM, compound 50 μM, [Cu^2+] = 25 μM, additional 24 h
T5 construct: purchased Sigma
Experimental: For assaying the disaggregation of the copper (II)-induced Aβ1-42 fibrils, the Aβ1-42 stock solution was first diluted in HEPES buffer ([…], pH 6.6). The mixture of the peptide (10 μL, 25 μM final concentration) and copper (II) (10 μL, 25 μM final concentration) was then incubated at 37 °C for 24 h. Then, the test compound (10 μL, 50 μM final concentration) was added and incubated at 37 °C for an additional 24 h. Thereafter, 30 μL of the sample was diluted to a final volume of 200 μL with 50 mM glycine-NaOH buffer (pH 8.0) containing thioflavin-T (5 μM) in the dark. The detection method used was the same as that described above.

PDE3A (679–1087) = target: T6, PDE3A (679–1087) (Homo sapiens, UniProt Q14432); assay: PDE activity assay, PDE3A catalytic domain; format: biochemical
T6 construct: PDE3A (679–1087)
Experimental: as §1

Aβ1-42 = target: T7, Aβ1-42 (Homo sapiens, UniProt P05067); assay: Transmission electron microscopy (TEM) assay of Aβ1-42; format: biochemical; details: [Aβ1-42] = 25 μM, compound 50 μM, [Cu^2+] = 25 μM, 37 °C, 24 h
T7 construct: purchased Sigma
Experimental: The assays were performed as reported previously. For the TEM assay of copper (II)-induced Aβ1-42 aggregation and the disaggregation of the fibrils, the samples were pretreated as described for the ThT assay. Samples (10 μL) were placed on a carbon-coated copper/rhodium grid for 2 min. Then, each grid was stained with uranyl acetate (1%, 5 μL) for 2 min. After the excess staining solution was drained off, the specimen was transferred for imaging by a transmission electron microscope (JEOL JEM-1400).

PDE7A1 (130–482) = target: T8, PDE7A1 (130–482) (Homo sapiens, UniProt Q13946); assay: PDE activity assay, PDE7A1 catalytic domain; format: biochemical
T8 construct: PDE7A1 (130–482)
Experimental: as §1

PDE8A1 (480–820) = target: T9, PDE8A1 (480–820) (Homo sapiens, UniProt O60658); assay: PDE activity assay, PDE8A1 catalytic domain; format: biochemical
T9 construct: PDE8A1 (480–820)
T9 sequence (O60658 480-820): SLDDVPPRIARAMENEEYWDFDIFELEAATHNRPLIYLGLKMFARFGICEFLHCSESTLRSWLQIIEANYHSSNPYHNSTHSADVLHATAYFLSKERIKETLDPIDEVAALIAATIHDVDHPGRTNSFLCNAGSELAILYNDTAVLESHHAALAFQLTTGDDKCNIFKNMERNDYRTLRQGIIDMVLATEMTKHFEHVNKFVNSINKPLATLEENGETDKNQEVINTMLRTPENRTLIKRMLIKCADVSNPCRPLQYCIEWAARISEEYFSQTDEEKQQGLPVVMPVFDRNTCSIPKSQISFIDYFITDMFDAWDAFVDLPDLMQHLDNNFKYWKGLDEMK
Experimental: as §1

T7 sequence (P05067 672-713 limits assumed): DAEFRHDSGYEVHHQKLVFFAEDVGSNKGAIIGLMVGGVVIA
T2 sequence (Q9Y233 714-1055): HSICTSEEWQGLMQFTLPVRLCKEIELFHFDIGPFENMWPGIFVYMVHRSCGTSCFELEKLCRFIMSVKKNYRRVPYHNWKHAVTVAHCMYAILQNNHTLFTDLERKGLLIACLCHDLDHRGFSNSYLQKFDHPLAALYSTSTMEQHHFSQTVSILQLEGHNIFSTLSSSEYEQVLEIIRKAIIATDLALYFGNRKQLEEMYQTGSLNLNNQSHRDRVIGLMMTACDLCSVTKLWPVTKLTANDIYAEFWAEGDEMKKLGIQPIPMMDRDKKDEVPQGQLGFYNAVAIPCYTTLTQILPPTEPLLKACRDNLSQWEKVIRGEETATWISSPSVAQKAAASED
T1 sequence (O00408 580-941): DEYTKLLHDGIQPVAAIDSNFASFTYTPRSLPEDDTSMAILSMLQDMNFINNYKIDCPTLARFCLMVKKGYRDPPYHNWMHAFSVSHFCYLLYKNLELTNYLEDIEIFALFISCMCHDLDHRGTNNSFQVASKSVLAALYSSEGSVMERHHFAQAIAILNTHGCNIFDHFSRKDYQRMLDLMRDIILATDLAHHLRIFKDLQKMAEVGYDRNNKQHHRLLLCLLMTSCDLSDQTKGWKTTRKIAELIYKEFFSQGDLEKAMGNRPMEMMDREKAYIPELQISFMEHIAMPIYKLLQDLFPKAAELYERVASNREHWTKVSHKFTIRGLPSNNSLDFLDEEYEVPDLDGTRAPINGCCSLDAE
T5 sequence (P05067 672-713 limits assumed): as the sequence (P05067 672-713 limits assumed) above
T6 sequence (Q14432 679-1087): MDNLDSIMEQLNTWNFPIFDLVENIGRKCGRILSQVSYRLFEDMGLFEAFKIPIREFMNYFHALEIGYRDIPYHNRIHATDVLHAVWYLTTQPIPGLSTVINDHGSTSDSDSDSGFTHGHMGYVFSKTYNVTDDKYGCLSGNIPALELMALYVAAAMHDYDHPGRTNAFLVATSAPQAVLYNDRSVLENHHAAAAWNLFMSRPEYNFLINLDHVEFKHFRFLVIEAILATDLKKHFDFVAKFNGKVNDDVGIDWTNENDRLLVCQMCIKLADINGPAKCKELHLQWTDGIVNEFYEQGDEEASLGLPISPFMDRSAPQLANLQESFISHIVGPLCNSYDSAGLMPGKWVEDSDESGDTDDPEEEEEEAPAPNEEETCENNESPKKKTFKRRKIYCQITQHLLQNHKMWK
T3 sequence (Q08499 388-715): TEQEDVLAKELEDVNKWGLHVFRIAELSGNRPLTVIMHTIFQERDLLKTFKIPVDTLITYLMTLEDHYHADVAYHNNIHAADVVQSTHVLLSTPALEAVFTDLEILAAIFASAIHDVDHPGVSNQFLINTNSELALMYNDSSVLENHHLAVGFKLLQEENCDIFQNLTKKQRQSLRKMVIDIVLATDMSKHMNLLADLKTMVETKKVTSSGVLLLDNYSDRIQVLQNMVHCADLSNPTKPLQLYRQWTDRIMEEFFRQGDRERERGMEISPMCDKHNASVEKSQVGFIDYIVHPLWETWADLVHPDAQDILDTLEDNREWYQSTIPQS
T8 sequence (Q13946 130-482): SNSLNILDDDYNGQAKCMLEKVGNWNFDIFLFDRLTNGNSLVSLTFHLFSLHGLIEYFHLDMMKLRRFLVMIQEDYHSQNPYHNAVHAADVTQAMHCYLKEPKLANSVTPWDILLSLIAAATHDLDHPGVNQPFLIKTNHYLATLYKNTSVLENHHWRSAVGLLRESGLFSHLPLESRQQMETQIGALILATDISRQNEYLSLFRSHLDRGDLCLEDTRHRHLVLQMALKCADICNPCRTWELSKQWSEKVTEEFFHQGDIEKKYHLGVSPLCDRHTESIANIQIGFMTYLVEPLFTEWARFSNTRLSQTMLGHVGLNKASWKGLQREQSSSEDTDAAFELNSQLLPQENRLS
T4 sequence (Q01064 10-487 isoform Q01064-2): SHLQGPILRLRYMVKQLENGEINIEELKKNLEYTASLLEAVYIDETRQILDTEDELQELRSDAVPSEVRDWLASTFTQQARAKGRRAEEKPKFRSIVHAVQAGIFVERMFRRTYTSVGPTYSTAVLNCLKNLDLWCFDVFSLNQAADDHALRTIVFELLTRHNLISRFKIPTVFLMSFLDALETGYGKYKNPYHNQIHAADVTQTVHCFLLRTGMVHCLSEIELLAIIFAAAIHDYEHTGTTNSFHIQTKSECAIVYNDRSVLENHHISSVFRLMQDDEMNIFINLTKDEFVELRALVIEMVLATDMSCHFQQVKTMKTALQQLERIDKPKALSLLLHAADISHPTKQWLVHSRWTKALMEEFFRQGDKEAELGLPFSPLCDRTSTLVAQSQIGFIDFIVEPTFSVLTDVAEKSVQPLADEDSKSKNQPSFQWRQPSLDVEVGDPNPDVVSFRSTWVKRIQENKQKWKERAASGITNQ

## COc1ccc(CN[C@H](C)c2nc3c(cnn3C3CCCC3)c(=O)[nH]2)c(O)c1 [Compound 16]
[1]
  logP at 30 min: 1.1
[2]
  ORAC: 4.47 ± 0.10 μmol of Trolox equiv/μmol tested compound
  oxygen radical absorbance capacity, ORAC-FL value: 4.47 ORAC-FL units
PDE5A1 (535–860)
  IC50: 1900 nM
[3]; PAMPA, PBS:EtOH (70:30), mean ± SD of three independent experiments, read-out: Permeability
  Papp at 10 h, 100 μg/mL: 17 ×10⁻⁶ cm/s
[3]; from PAMPA-BBB Pe
  prediction of penetration into the CNS: CNS+ (Compounds of high BBB permeation (CNS+) Pe > 4.7)
PDE2A3 (580–941)
  IC50: > 50000 nM
[4]
  copper redox cycling, OH· production (7-hydroxyl-CCA fluorescence): fully inhibited
PDE10A2 (448–789)
  IC50: 6900 nM
PDE4D2 (86–413)
  IC50: 25000 nM
PDE1B2 (10–487)
  IC50: 17000 nM
SH-SY5Y cells [5]
  intracellular antioxidant activity (ROS, DCFH-DA): superior antioxidant activity to that of Trolox
SH-SY5Y cells [6]
  cytotoxicity toward SH-SY5Y cells (MTT): nearly no toxicity
[7]
  chelation of Cu^2+, Fe^2+, Zn^2+ (UV-vis absorbance changes): formation of 16-Metal ion (II) complex
  chelation of Fe^3+ (UV-vis): failed to chelate Fe^3+ effectively
Aβ1-42 fibrils
  disaggregation of Cu^2+-induced Aβ1-42 fibrils (ThT): 64.6%
PDE3A (679–1087)
  IC50: > 10000 nM
Aβ1-42
  Aβ fibrils by TEM, disaggregation of preformed fibrils: drastically reduced the amount of Aβ fibrils
  Aβ fibrils by TEM, inhibition of Cu^2+-induced aggregation: fewer fibrils were observed than in the presence of CQ
PDE7A1 (130–482)
  IC50: > 50000 nM
PDE8A1 (480–820)
  IC50: > 50000 nM
